According to patent publication US20080219936A1, “Skin depigmenting compositions comprising adapalene, at least one depigmenting agent and at least one anti-inflammatory agent” (GALDERMA RESEARCH AND DEVELOPMENT, priority 2005, published 2008):

How the values were obtained:
[1] = tested on: natural pigmentation of the tail of an SKH:HR2 mouse; assay: Depigmenting activity on natural pigmentation, tail of non-irradiated SKH:HR2 mouse, 8 weeks; assay type: in vivo; details: topical in acetone 5 days a week for 8 weeks, 3% hydroquinone, 0.1% adapalene, alone or in combination
Method: The evaluation of the depigmenting and/or anti-pigmenting activity of 3% hydroquinone and of 0.1% adapalene, alone or in combination for 8 weeks, is carried out on the tail of an SKH:HR2 mouse irradiated with ultraviolet B radiation, or not irradiated.
The treatment is carried out 5 days a week for 8 weeks. 20 μl of test product diluted in acetone are applied to the tail with a gap from applications: the hydroquinone is applied in the morning and the adapalene 4 h later.
−1: slight depigmentation
−2: moderate depigmentation
−3: marked depigmentation
−4: complete depigmentation

[2] = tested on: UV-induced pigmentation of the tail of an SKH:HR2 mouse; details: UV-B 90 mJ/cm^2 3 times a week; topical in acetone 5 days a week for 8 weeks; 3% hydroquinone, 0.1% adapalene
Method: The tail of the SKH:HR2 mouse is naturally pigmented and this pigmentation increases under the effect of repeated UV-B irradiation. The depigmenting activity is measured on the natural pigmentation after application of the test product to the tail of non-irradiated animals. The anti-pigmenting activity is measured by the inhibition of the induction of the UV-induced pigmentation: the test product is applied to the tail of UV-B-irradiated animals.
The treatment is carried out 5 days a week for 8 weeks. […] On the days of irradiation, the treatment is applied after irradiation.
The animals are irradiated 3 times a week for 8 weeks (Monday, Wednesday, Friday) at the dose of 90 mJ/cm^2 of UV-B.
The pigmentation is evaluated once a week before irradiation, by means of a score on a scale of 0 to 4. The scores are divided as follows: Depigmentation scale: scores −1 to −4.
Pigmentation scale: scores 1 to 4

[3] = tested on: tail of a mouse; assay: Inhibition of the induction of pigmentation by UV-B radiation in irradiated and treated mice; assay type: in vivo; details: lower dose (0.01%)
Description: Retinoic acid (tretinoin) is known to itself have a skin depigmenting activity (Guevara I. A. and Pandya A. G., Int. J. Dermatol., 40, 210-215 (2001)). […] Tretinoin is therefore a depigmenting agent in and of itself.

SMILES | depigmenting activity (natural pigmentation score) [1] | anti-pigmenting activity (inhibition of pigmentation induced by UV-B irradiation) [2] | depigmenting activity (natural pigmentation score) ([1]; listed as Adapalene) | inhibition of the induction of pigmentation by UV-B radiation [3]
Oc1ccc(O)cc1 [hydroquinone] | induces a depigmentation | shows an anti-pigmenting effect at the 6th and at the 7th week (D50), which becomes less marked at the end of the study | – | –
COc1ccc(-c2ccc3cc(C(=O)O)ccc3c2)cc1C12CC3CC(CC(C3)C1)C2 [adapalene, 6-[3-(1-adamantyl)-4-methoxyphenyl]-2-naphthanoic acid] | no depigmenting activity | – | does not modify the natural pigmentation | –
CC1=C(/C=C/C(C)=C/C=C/C(C)=C/C(=O)O)C(C)(C)CCC1 [tretinoin, Retinoic acid] | – | – | – | no effect
